Test results from patent US10376585B2, “Injectable antibiotic formulations and their methods of use” (BAYER NEW ZEALAND LTD, priority 2012, dated 2019).

Assays:
[1] = at 20° C.; cited from earlier work
[2] = assay type: physicochemical
Source text: Thus the long term stability of PNT with triacetin (or other oily vehicles) is highly unexpected.
After one month in accelerated stability the components of the composition appeared to degrade rapidly with a resulting colour change from an off-white to a dark yellow with dark brown sludge forming. The degradation components appeared to include a gas, resulting in the container swelling from the resultant pressure. Accordingly, the formulations described in CN 1517090 are not known to be storage stable.

[3] = intramuscular administration; Friton 2003; cited from earlier work
[4] = blood pH (7.2); cited from earlier work

CC(=O)OCC(COC(C)=O)OC(C)=O [Triacetin]
viscosity [1]: approximately 23 mPas

CC1(C)S[C@@H]2[C@H](NC(=O)Cc3ccccc3)C(=O)N2[C@H]1C(=O)O [benzylpenicillin]
chemical stability on storage [2]: chemically unstable on storage

CCN(CC)CCOC(=O)[C@@H]1N2C(=O)[C@@H](NC(=O)Cc3ccccc3)[C@H]2SC1(C)C.I [penethamate hydroiodide]
time to peak serum levels (measured as dissociated penicillin G) after injection [3]: 3.76 h | active drug present in its hydrolysed form (benzylpenicillin) at equilibrium [4]: 91.8%

CC1(C)S[C@@H]2[C@H](NC(=O)Cc3ccccc3)C(=O)N2[C@H]1C(=O)O.CCN(CC)CCOC(=O)c1ccc(N)cc1 [procaine penicillin]
chemical stability of composition [2]: chemically unstable | chemical stability on storage [2]: chemically unstable on storage
